How the values were obtained:
Assay in all cases: relative viability (nuclei count vs DMSO), 5 days (fraction); higher = more cells survive
[1] = compound: CC1=CC(=NN1)NC2=CC(=NC(=N2)/C=C/C3=CC=CC=C3)N4CCN(CC4)C + CC(=O)Nc1cccc(-n2c(=O)n(C3CC3)c(=O)c3c(Nc4ccc(I)cc4F)n(C)c(=O)c(C)c32)c1 [Trametinib] (partner 0.02 µM)
Procedure, shortened: (§1)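 Lung cancer cell lines in 1536-well plates got either a single drug or a fixed anchor-drug dose together with five library-drug doses (not always all listed) in √10 steps, by pin tool, on the day after seeding. Nuclei were counted after 5 days, and relative viability is the treated-to-vehicle ratio of nuclei counts. Values are medians of duplicate plates.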

[2] = compound: CC1=CC(=NN1)NC2=CC(=NC(=N2)/C=C/C3=CC=CC=C3)N4CCN(CC4)C + Cc1nc(NC(=O)N2CCC[C@H]2C(N)=O)sc1-c1ccnc(C(C)(C)C(F)(F)F)c1 [Alpelisib] (partner 2 µM)
Procedure, shortened: as §1

[3] = compound: COC1=CC(c2cc3ccccc3[nH]2)=N/C1=C\c1[nH]c(C)cc1C [Obatoclax] + Cc1nc(Nc2ncc(C(=O)Nc3c(C)cccc3Cl)s2)cc(N2CCN(CCO)CC2)n1 [Dasatinib] (partner 0.075 µM)
Procedure, shortened: as §1

[4] = compound: CC(C)C[C@H](NC(=O)[C@H](Cc1ccccc1)NC(=O)c1cnccn1)B(O)O [Bortezomib] + O=C(CCCCCCC(=O)Nc1ccccc1)NO [Vorinostat] (partner 1 µM)
Procedure, shortened: as §1

Cell Line	relative viability ([1]; first compound 0.08 µM)	relative viability ([1]; first compound 0.253 µM)	relative viability ([1]; first compound 0.8 µM)	relative viability ([1]; first compound 2.53 µM)	relative viability ([1]; first compound 8 µM)	relative viability ([2]; first compound 0.08 µM)	relative viability ([2]; first compound 0.253 µM)	relative viability ([2]; first compound 0.8 µM)	relative viability ([2]; first compound 2.53 µM)	relative viability ([2]; first compound 8 µM)	relative viability ([3]; first compound 0.01 µM)	relative viability ([3]; first compound 0.03162 µM)	relative viability ([3]; first compound 0.1 µM)	relative viability ([3]; first compound 0.3162 µM)	relative viability ([3]; first compound 1 µM)	relative viability ([4]; first compound 0.0002 µM)	relative viability ([4]; first compound 0.000632 µM)	relative viability ([4]; first compound 0.002 µM)	relative viability ([4]; first compound 0.006325 µM)	relative viability ([4]; first compound 0.02 µM)
LOU-NH91	0.767	0.823	0.754	0.783	0.439	0.68	0.816	0.762	0.61	0.404	0.557	0.511	0.379	0.486	0.51	0.88	0.816	0.413	0.313	0.359
LU99A	0.54	0.311	0.532	0.328	0.165	0.459	0.514	0.324	0.157	0.129	0.471	0.568	0.575	0.434	0.261	0.479	0.427	0.533	0.464	0.152
LXF-289	0.637	0.623	0.637	0.592	0.442	1.07	1.06	0.919	0.199	0.0577	0.23	0.23	0.0916	0.221	0.154	0.732	0.734	0.896	0.0875	0.0888
NCI-H23	0.302	0.317	0.257	0.142	0.118	0.55	0.859	0.704	0.265	0.12	0.826	0.838	0.825	0.757	0.306	0.603		0.495	0.132	0.0977
NCI-H322M	0.485	0.57	0.811	0.337	0.327	0.716	0.792	0.757	0.436	0.204	0.257	0.259		0.259	0.28	0.841	0.696	0.826	0.393	0.491
NCI-H358	0.124	0.123	0.128	0.0733	0.0762	0.934	0.821	0.539	0.142	0.153	0.142	0.193	0.218	0.132	0.114	0.699	0.71	0.405	0.0638	0.0768
NCI-H441	0.434	0.426	0.42	0.141	0.0993	0.632	0.578	0.484	0.157	0.121	0.537	0.634	0.542	0.402	0.208	0.865	0.803	0.243	0.138	0.141
NCI-H460	0.171	0.0318	0.129	0.0109	0.0042	0.388	0.581	0.183	0.0086	0.0052	0.497	0.385	0.384	0.343	0.21	0.668	0.678	0.857	0.0257	0.0172

Source: the supplement of paper PMC10307832
